One data set is described as follows: in vitro. Conditions: human, KB cells (nasopharyngeal carcinoma).
In another data set the test system is Entamoeba histolytica. The experiment in a line: In vitro growth inhibition against Entamoeba histolytica. It counts as functional, organism-based.
Data set [1] is described as follows: Therapeutic index was expressed as ratio of LD50 for KB cell line to IC50 against Entamoeba histolytica. Conditions: human, KB cells; read-out: TI. It counts as cell-based.
The next data set relates to Plasmodium falciparum. The experiment in a line: microbe, parasite or virus in culture.

Description for Plasmodium falciparum: In vitro growth inhibition against Plasmodium falciparum
Description for in vitro: Toxicity evaluated against human nasopharyngeal carcinoma KB cell line

A word on the CC50: it is the concentration at which the toxic effect on the cells reaches its halfway point. Higher therefore signals better tolerance by the cells. As usually defined, the IC50 is the midpoint of a concentration-inhibition curve. A lower IC50 goes with inhibition by little substance. Take `O=P(O)(O)C(N1CCc2ccccc2C1)P(=O)(O)O`: in the data set “in vitro”, the CC50 was more than 922 µM. Moreover, half-maximal inhibition in the data set on Entamoeba histolytica (IC50) required 71 µM. In addition, the selectivity ratio in data set [1] is more than 13.
`CCCCOc1ccc(NC(P(=O)(O)O)P(=O)(O)O)cc1` had a CC50 in “in vitro” of 210 µM. For the same molecule, the results for the IC50 in the data set with Entamoeba histolytica and in the data set on Plasmodium falciparum were 3.98 µM and more than 200 µM, respectively. The selectivity ratio in data set [1] came to 52.7.
On the same counts, the results for `O=P(O)(O)C(NC1CC1)P(=O)(O)O` [(CYCLOPROPYLAMINO)METHYLENEDIPHOSPHONIC ACID] are 246 µM, 113 µM, more than 200 µM and 2.18.
Regarding `O=P(O)(O)C(NCCCc1ccccc1)P(=O)(O)O`, the CC50 in the data set “in vitro” is more than 970 µM. The figures for the IC50 in the data set on Entamoeba histolytica and in the data set with Plasmodium falciparum were 15.6 µM and more than 200 µM, respectively. Further, the selectivity ratio in data set [1] was more than 62.2.
The matching figures for `O=P(O)(O)C(Nc1cccnc1)P(=O)(O)O`: 782 µM, 60 µM, more than 200 µM and 13.
In “in vitro”, `O=P(O)(O)C(O)(CCNCCCCc1ccccc1)P(=O)(O)O` showed a CC50 of more than 727 µM. For the same molecule, the values for the IC50 with Entamoeba histolytica and in the data set on Plasmodium falciparum were 20.5 µM and more than 200 µM, respectively. Also, the selectivity ratio in data set [1] is more than 35.5.
The molecule `O=P(O)(O)C(NC1CCCCCCC1)P(=O)(O)O` [(CYCLOOCTYLAMINO)METHYLENEDIPHOSPHONIC ACID] had a CC50 in “in vitro” of 354 µM. For the same molecule, the IC50 in the data set on Entamoeba histolytica was 15.5 µM; in the data set with Plasmodium falciparum, more than 200 µM. For the same molecule, in data set [1], the selectivity ratio was 22.9.
`CCCCN(CC)C(P(=O)(O)O)P(=O)(O)O` [(BUTYL(ETHYL)AMINO)METHYLENEDIPHOSPHONIC ACID] gave a CC50 in the data set “in vitro” of more than 1060 µM. Besides, the IC50 in the data set on Entamoeba histolytica is 47.3 µM; in the data set on Plasmodium falciparum, more than 200 µM. Also, the selectivity ratio in data set [1] is more than 22.3.
On to `CC(C)CCNC(P(=O)(O)O)P(=O)(O)O` [(ISOPENTYLAMINO)METHYLENEDIPHOSPHONIC ACID], for which the CC50 in “in vitro” amounted to 480 µM. Besides, the IC50 is 36.9 µM with Entamoeba histolytica and more than 200 µM with Plasmodium falciparum. Further, the selectivity ratio in data set [1] was found to be 13.
`O=P(O)(O)C(Nc1ccc2c(c1)CCC2)P(=O)(O)O`: the CC50 in the data set “in vitro” was more than 976 µM. Moreover, the IC50 with Entamoeba histolytica and in the data set with Plasmodium falciparum was more than 200 µM throughout.
`O=P(O)(O)C(NC1CCC1)P(=O)(O)O` [(CYCLOBUTYLAMINO)METHYLENEDIPHOSPHONIC ACID] registered a CC50 in the data set “in vitro” of 260 µM. Further, the half-maximal inhibitory concentration (IC50) in the data set with Entamoeba histolytica and with Plasmodium falciparum was more than 200 µM throughout.
Turning to `O=P(O)(O)C(O)(C1CC1)P(=O)(O)O` [CYCLOPROPYL(HYDROXY)METHYLENEDIPHOSPHONIC ACID], the CC50 in “in vitro” was more than 1240 µM. Further, the IC50 in the data set on Entamoeba histolytica and with Plasmodium falciparum was more than 200 µM each time.
`O=P(O)(O)C(N1CCCCC1)P(=O)(O)O`: the 50% cytotoxic concentration (CC50) in “in vitro” is more than 1090 µM. Moreover, the IC50 with Entamoeba histolytica and in the data set on Plasmodium falciparum was more than 200 µM throughout.
For `O=P(O)(O)C(O)(Cn1ccnc1)P(=O)(O)O` [ZOLEDRONIC ACID], half-maximal cytotoxicity in “in vitro” (CC50) was put at 63.7 µM. Besides, the concentration for half-maximal inhibition (IC50) in the data set with Entamoeba histolytica worked out at 12 µM; in the data set with Plasmodium falciparum it was 167 µM.
The matching figures for `CCCCNC(P(=O)(O)O)P(=O)(O)O` [(BUTYLAMINO)METHYLENEDIPHOSPHONIC ACID]: 212 µM, more than 200 µM and more than 200 µM.
The matching figures for `O=P(O)(O)C(Nc1c(F)c(F)c(F)c(F)c1F)P(=O)(O)O`: more than 779 µM, more than 200 µM and more than 200 µM.
`O=P(O)(O)C(NC1CCCCCC1)P(=O)(O)O` [INCADRONIC ACID] came in with a CC50 in “in vitro” of 166 µM. The IC50 in the data set with Entamoeba histolytica and in the data set on Plasmodium falciparum was more than 200 µM in each case.
In the case of `Cc1cccc(NC(P(=O)(O)O)P(=O)(O)O)n1`, the CC50 in “in vitro” was determined as 18.6 µM. Further, the IC50 in the data set with Entamoeba histolytica is 64 µM; in the data set with Plasmodium falciparum, more than 200 µM.
Consider `CCCCCCCCCCCCCCCCCC(O)(P(=O)(O)O)P(=O)(O)O`, for which the CC50 in the data set “in vitro” is less than 0.65 µM. Also, the concentration for half-maximal inhibition (IC50) in the data set on Entamoeba histolytica and with Plasmodium falciparum was more than 200 µM throughout.

These data come from ChEMBL document CHEMBL1148279, “Effects of bisphosphonates on the growth of Entamoeba histolytica and Plasmodium species in vitro and in vivo” (J Med Chem, 2004).
